Measurements: US11591322B2, “Certain chemical compositions and methods of use thereof” (Algen Biotechnologies, Inc., priority 2020, dated 2023)

Assays:
CDK9/CyclinT = CDK9/CyclinT (Homo sapiens (Human), UniProt P50750); test: CDK9 biochemical assay (Kinase-Glo Max luminescence); details: 30° C. for 45 minutes
Protocol: To each well of a 96-well plate was added 5× kinase assay buffer with 10 mM DTT (6 μL), 500 μM ATP (1 μL), 5×CDK substrate (10 μL), and water (8 μL). 5 μL of compound were added to the test and positive control groups, while 5 μL of solvent was added to the blank groups. 100 ng of CDK9/CyclinT in 20 μL water was added to the test and positive control groups, while 20 μL of 1× kinase assay buffer was added to the blank groups. The reaction mixtures were incubated at 30° C. for 45 minutes, and 50 μL of Kinase-Glo® Max was added to each well and the plates were shielded from light and incubated for 15 minutes at room temperature. Luminescence was measured on a microplate reader and IC50 values were calculated using Prism 9 software.

HepG2 cells = test: Cancer cell viability assay (CellTiter-Glo 2.0), HepG2; format: cell-based, Human; details: HepG2, 72 hours compound treatment
Protocol: (§1) Human liver cancer cell lines HepG2, Hep3B, Huh7, and SK-HEP-1 cells were rinsed and trypsinized with 0.25% trypsin (Corning #25-053-CI) in an incubator at 37° C. until detached. The cells were resuspended and seeded in 96-well plates to a density of 5,000 cells per well. Following cell adhesion, compounds were added to a final concentration of 2× dilution. 72 hours following compound treatment, CellTiter-Glo® 2.0 was added to the well in a 2:1 ratio of media/CellTiter-Glo® 2.0. The plates were shielded from light, shaken for 2 minutes, and incubated for 10 minutes. Luminescence was measured on a microplate reader and EC50 values were calculated using Prism 9 software.

Hep3B cells = test: Cancer cell viability assay (CellTiter-Glo 2.0), Hep3B; format: cell-based, Human; details: 72 hours compound treatment
Protocol: as §1

Chain of CDK9/CyclinT (P50750 whole entry): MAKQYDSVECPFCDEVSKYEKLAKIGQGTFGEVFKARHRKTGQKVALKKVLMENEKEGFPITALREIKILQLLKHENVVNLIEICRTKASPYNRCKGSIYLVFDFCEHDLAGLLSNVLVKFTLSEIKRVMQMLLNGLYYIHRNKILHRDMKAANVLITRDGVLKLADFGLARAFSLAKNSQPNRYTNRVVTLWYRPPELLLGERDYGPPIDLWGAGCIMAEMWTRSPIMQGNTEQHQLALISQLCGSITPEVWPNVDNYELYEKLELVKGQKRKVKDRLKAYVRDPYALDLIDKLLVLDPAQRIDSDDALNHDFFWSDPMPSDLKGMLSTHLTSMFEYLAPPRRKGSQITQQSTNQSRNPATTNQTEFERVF
Chain of CDK9/CyclinT (O60563 whole entry partner): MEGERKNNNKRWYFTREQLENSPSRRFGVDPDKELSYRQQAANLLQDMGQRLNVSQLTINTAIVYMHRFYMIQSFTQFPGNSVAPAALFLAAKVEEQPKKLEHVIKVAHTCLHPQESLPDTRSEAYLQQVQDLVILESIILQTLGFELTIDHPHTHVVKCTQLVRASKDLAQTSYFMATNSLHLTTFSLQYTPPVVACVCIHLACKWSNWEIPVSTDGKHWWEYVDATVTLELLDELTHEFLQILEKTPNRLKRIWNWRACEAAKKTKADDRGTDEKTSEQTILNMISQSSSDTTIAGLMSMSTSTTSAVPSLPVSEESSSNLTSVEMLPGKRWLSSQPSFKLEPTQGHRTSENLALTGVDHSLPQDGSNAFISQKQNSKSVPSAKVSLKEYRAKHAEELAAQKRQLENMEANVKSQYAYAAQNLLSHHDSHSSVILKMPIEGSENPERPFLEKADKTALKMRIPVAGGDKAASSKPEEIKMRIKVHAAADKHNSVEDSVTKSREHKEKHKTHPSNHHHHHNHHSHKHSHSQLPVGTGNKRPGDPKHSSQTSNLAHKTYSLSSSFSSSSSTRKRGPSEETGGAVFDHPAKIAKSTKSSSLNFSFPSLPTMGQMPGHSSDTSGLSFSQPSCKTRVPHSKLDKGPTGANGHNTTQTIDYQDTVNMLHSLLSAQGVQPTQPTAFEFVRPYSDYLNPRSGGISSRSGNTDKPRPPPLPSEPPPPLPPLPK

| SMILES | IC50 (CDK9/CyclinT) | EC50 (HepG2 cells) | EC50 (Hep3B cells) |
| --- | --- | --- | --- |
| C[C@H](Cc1nnn[nH]1)NC1CCC(Nc2cc(-c3cccc(NCC4(C#N)CCOCC4)n3)c(Cl)cn2)CC1 (stereo partly drawn) [Compound 12, 4-(((2′-(((1R,4R)-4-(((R)-1-(1H-tetrazol-5-yl)propan-2-yl)amino)cyclohexyl)amino)-5′-chloro-[2,4′-bipyridin]-6-yl)amino)methyl)tetrahydro-2H-pyran-4-carbonitrile] | > 10 nM | > 1000 nM |  |
| C[C@@H](Cc1nnn[nH]1)NC1CCC(Nc2cc(-c3cccc(NCC4(C#N)CCOCC4)n3)c(Cl)cn2)CC1 (stereo partly drawn) [Compound 13, 4-(((2′-(((1S,4R)-4-(((S)-1-(1H-tetrazol-5-yl)propan-2-yl)amino)cyclohexyl)amino)-5′-chloro-[2,4′-bipyridin]-6-yl)amino)methyl)tetrahydro-2H-pyran-4-carbonitrile] | > 10 nM | > 1000 nM |  |
| CCOC(=O)O[C@H](C)n1nnc(COC[C@@H](C)N[C@H]2CC[C@H](Nc3cc(-c4cccc(NCC5(C#N)CCOCC5)n4)c(Cl)cn3)CC2)n1 [Compound 21, (R)-1-(5-(((R)-2-(((1r,4R)-4-((5′-chloro-6-(((4-cyanotetrahydro-2H-pyran-4-yl)methyl)amino)-[2,4′-bipyridin]-2′-yl)amino)cyclohexyl)amino)propoxy)methyl)-2H-tetrazol-2-yl)ethyl ethyl carbonate] | < 2.5 nM | > 1000 nM | 500 to 1000 nM |
| CCOC(=O)O[C@H](C)n1nnc(COC[C@H](C)N[C@H]2CC[C@H](Nc3cc(-c4cccc(NCC5(C#N)CCOCC5)n4)c(Cl)cn3)CC2)n1 [Compound 22, (R)-1-(5-(((S)-2-(((1r,4S)-4-((5′-chloro-6-(((4-cyanotetrahydro-2H-pyran-4-yl)methyl)amino)-[2,4′-bipyridin]-2′-yl)amino)cyclohexyl)amino)propoxy)methyl)-2H-tetrazol-2-yl)ethyl ethyl carbonate] | 2.5 to 5 nM | > 1000 nM | 500 to 1000 nM |
| CCOC(=O)O[C@@H](C)n1nnc(COC[C@@H](C)N[C@H]2CC[C@H](Nc3cc(-c4cccc(NCC5(C#N)CCOCC5)n4)c(Cl)cn3)CC2)n1 [Compound 24, (S)-1-(5-(((R)-2-(((1r,4R)-4-((5′-chloro-6-(((4-cyanotetrahydro-2H-pyran-4-yl)methyl)amino)-[2,4′-bipyridin]-2′-yl)amino)cyclohexyl)amino)propoxy)methyl)-2H-tetrazol-2-yl)ethyl ethyl carbonate] | > 10 nM | > 1000 nM | > 1000 nM |
| CCOC(=O)O[C@@H](C)n1nnc(COC[C@H](C)N[C@H]2CC[C@H](Nc3cc(-c4cccc(NCC5(C#N)CCOCC5)n4)c(Cl)cn3)CC2)n1 [Compound 25, (S)-1-(5-(((S)-2-(((1r,4S)-4-((5′-chloro-6-(((4-cyanotetrahydro-2H-pyran-4-yl)methyl)amino)-[2,4′-bipyridin]-2′-yl)amino)cyclohexyl)amino)propoxy)methyl)-2H-tetrazol-2-yl)ethyl ethyl carbonate] | > 10 nM | > 1000 nM | > 1000 nM |
| CCOC(=O)O[C@H](C)n1nnnc1COC[C@@H](C)N[C@H]1CC[C@H](Nc2cc(-c3cccc(NCC4(C#N)CCOCC4)n3)c(Cl)cn2)CC1 [Compound 27, (R)-1-(5-(((R)-2-(((1r,4R)-4-((5′-chloro-6-(((4-cyanotetrahydro-2H-pyran-4-yl)methyl)amino)-[2,4′-bipyridin]-2′-yl)amino)cyclohexyl)amino)propoxy)methyl)-1H-tetrazol-1-yl)ethyl ethyl carbonate] | < 2.5 nM | > 1000 nM | > 1000 nM |
| CCOC(=O)O[C@H](C)n1nnnc1COC[C@H](C)N[C@H]1CC[C@H](Nc2cc(-c3cccc(NCC4(C#N)CCOCC4)n3)c(Cl)cn2)CC1 [Compound 28, (R)-1-(5-(((S)-2-(((1r,4S)-4-((5′-chloro-6-(((4-cyanotetrahydro-2H-pyran-4-yl)methyl)amino)-[2,4′-bipyridin]-2′-yl)amino)cyclohexyl)amino)propoxy)methyl)-1H-tetrazol-1-yl)ethyl ethyl carbonate] | > 10 nM | > 1000 nM | > 1000 nM |
| CCOC(=O)O[C@@H](C)n1nnnc1COC[C@@H](C)N[C@H]1CC[C@H](Nc2cc(-c3cccc(NCC4(C#N)CCOCC4)n3)c(Cl)cn2)CC1 [Compound 30, (S)-1-(5-(((R)-2-(((1r,4R)-4-((5′-chloro-6-(((4-cyanotetrahydro-2H-pyran-4-yl)methyl)amino)-[2,4′-bipyridin]-2′-yl)amino)cyclohexyl)amino)propoxy)methyl)-1H-tetrazol-1-yl)ethyl ethyl carbonate] | < 2.5 nM | 500 to 1000 nM | > 1000 nM |
| CCOC(=O)O[C@@H](C)n1nnnc1COC[C@H](C)N[C@H]1CC[C@H](Nc2cc(-c3cccc(NCC4(C#N)CCOCC4)n3)c(Cl)cn2)CC1 [Compound 31, (S)-1-(5-(((S)-2-(((1r,4S)-4-((5′-chloro-6-(((4-cyanotetrahydro-2H-pyran-4-yl)methyl)amino)-[2,4′-bipyridin]-2′-yl)amino)cyclohexyl)amino)propoxy)methyl)-1H-tetrazol-1-yl)ethyl ethyl carbonate] | < 2.5 nM | > 1000 nM | > 1000 nM |
| C[C@@H](COCc1nnn(C)n1)N[C@H]1CC[C@H](Nc2cc(-c3cccc(NCC4(C#N)CCOCC4)n3)c(Cl)cn2)CC1 [Compound 34, 4-(((5′-chloro-2′-(((1S,4r)-4-(((S)-1-((2-methyl-2H-tetrazol-5-yl)methoxy)propan-2-yl)amino)cyclohexyl)amino)-[2,4′-bipyridin]-6-yl)amino)methyl)tetrahydro-2H-pyran-4-carbonitrile] | > 10 nM | < 100 nM | 100 to 500 nM |
| C[C@H](COCc1nnnn1C)N[C@H]1CC[C@H](Nc2cc(-c3cccc(NCC4(C#N)CCOCC4)n3)c(Cl)cn2)CC1 [Compound 36, 4-(((5′-chloro-2′-(((1R,4r)-4-(((R)-1-((1-methyl-1H-tetrazol-5-yl)methoxy)propan-2-yl)amino)cyclohexyl)amino)-[2,4′-bipyridin]-6-yl)amino)methyl)tetrahydro-2H-pyran-4-carbonitrile] | < 2.5 nM | 100 to 500 nM | 500 to 1000 nM |
| C[C@@H](COCc1nnnn1C)N[C@H]1CC[C@H](Nc2cc(-c3cccc(NCC4(C#N)CCOCC4)n3)c(Cl)cn2)CC1 [Compound 37, 4-(((5′-chloro-2′-(((1S,4r)-4-(((S)-1-((1-methyl-1H-tetrazol-5-yl)methoxy)propan-2-yl)amino)cyclohexyl)amino)-[2,4′-bipyridin]-6-yl)amino)methyl)tetrahydro-2H-pyran-4-carbonitrile] | < 2.5 nM | 100 to 500 nM | 100 to 500 nM |
| CC(COCCNS(=O)(=O)C(F)F)NC1CCC(Nc2cc(-c3cccc(NCC4(C#N)CCOCC4)n3)c(Cl)cn2)CC1 (centres unmarked) [Compound 41, N-(2-(2-(((1r,4r)-4-((5′-chloro-6-(((4-cyanotetrahydro-2H-pyran-4-yl)methyl)amino)-[2,4′-bipyridin]-2′-yl)amino)cyclohexyl)amino)propoxy)ethyl)-1,1-difluoromethanesulfonamide] | 5 to 10 nM | < 100 nM | 100 to 500 nM |
| COC[C@@H](C)NC1CCC(Nc2cc(-c3cccc(NCC4(C#N)CCOCC4)n3)c(Cl)cn2)CC1 (some centres unmarked) [NVP-2, reference compound] | 2.5 to 5 nM |  |  |
